Assay results reported in patent US10364245B2 (CHIESI FARMACEUTICI S.p.A., priority 2017, dated 2019).
pIC50: −log10 of the molar value. Counter-ions that a name gives are not always drawn.

Key:
[1] = system: Peripheral Blood Mononuclear Cells (PBMCs), TNFα release; assay: LPS-stimulated PBMC TNFα release assay; type: cell-based; details: human PBMC, LPS (10 ng/ml), 18 h, compound 1 h before LPS; read-out: LPS-stimulated PBMC TNFα release inhibition
Procedure, shortened: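 TNFα in cell-free supernatant, read on MSD plates, gave % inhibition curves and IC50 (≥3 separate experiments). Healthy-donor PBMCs had 1 h compound exposure at 37 °C in 1% FBS medium, then 18 h stimulation with 10 ng/ml LPS, after a 3 h serum-free rest.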

p38 alpha = molecular target: T1, p38 alpha (Homo sapiens, UniProt Q16539); assay: P38 alpha enzyme inhibition assay (Alphascreen kinase activity assay); type: biochemical; details: 100 pM p38 alpha, 2 hours preincubation at 25° C., 250 μM ATP, ATF-2 fusion protein; read-out: p38α inhibition
T1 construct: purchased Invitrogen PV3304
T1 sequence (Q16539 whole entry, the tested form may be a part): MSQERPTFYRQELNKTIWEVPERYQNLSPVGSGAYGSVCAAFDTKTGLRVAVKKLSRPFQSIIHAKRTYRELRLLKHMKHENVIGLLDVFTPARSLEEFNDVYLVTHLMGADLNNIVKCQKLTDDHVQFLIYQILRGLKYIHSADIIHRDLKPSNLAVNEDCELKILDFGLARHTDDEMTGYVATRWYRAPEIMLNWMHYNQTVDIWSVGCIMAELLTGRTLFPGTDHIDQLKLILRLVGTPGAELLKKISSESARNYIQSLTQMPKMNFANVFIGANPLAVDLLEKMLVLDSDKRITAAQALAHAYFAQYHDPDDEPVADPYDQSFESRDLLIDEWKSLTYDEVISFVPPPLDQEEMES
Procedure, shortened: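 Phosphorylation of ATF-2 fusion protein (0.3 μg/ml) read by AlphaScreen with anti-phospho-ATF2 antibody after 1 h kinase reaction at 25 °C, initiated by 250 μM ATP. Compounds first incubated 2 h at 25 °C with 100 pM p38 alpha in pH 7.5 HEPES buffer, 1% DMSO. IC50 derived from concentration-response data.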

Question: With `CCC(CC)c1nnc2ccc(O[C@@H]3CC[C@H](NC(=O)Nc4cc(C(=O)NCCN(C)C)nc(C(C)(C)C)c4)c4ccccc43)cn12` [Example 207, 6-(tert-butyl)-N-(2-(dimethylamino)ethyl)-4-(3-((1S,4R)-4-((3-(pentan-3-yl)-[1,2,4]triazolo[4,3-a]pyridin-6-yl)oxy)-1,2,3,4-tetrahydronaphthalen-1-yl)ureido)picolinamide] as the molecule, how does the pIC50 [1] read?
Answer: > 9.00

Question: What about the pIC50 (p38 alpha) of the same molecule?
Answer: > 9.00

Question: `CN(CCO)CCNC(=O)c1cc(NC(=O)N[C@H]2CC[C@@H](Oc3ccc4nnc(C(C)(C)C)n4c3)c3ccccc32)cc(C(C)(C)C)n1` [Example 188, 6-(tert-butyl)-4-(3-((1S,4R)-4-((3-(tert-butyl)-[1,2,4]triazolo[4,3-a]pyridin-6-yl)oxy)-1,2,3,4-tetrahydronaphthalen-1-yl)ureido)-N-(2-((2-hydroxyethyl)(methyl)-amino)ethyl)picolinamide] was tested. Which pIC50 [1] did it give?
Answer: 8.30 to 9.00

Question: What about the pIC50 (p38 alpha) of the same molecule?
Answer: > 9.00

Question: `CN1CCN(C(C)(C)c2nnc3ccc(O[C@@H]4CC[C@H](NC(=O)Nc5cc(C(C)(C)C)nc(C(=O)NCCO)n5)c5ccccc54)cn23)CC1` [Example 139, 4-(tert-butyl)-N-(2-hydroxyethyl)-6-(3-((1S,4R)-4-((3-(2-(4-methylpiperazin-1-yl)propan-2-yl)-[1,2,4]triazolo[4,3-a]pyridin-6-yl)oxy)-1,2,3,4-tetrahydronaphthalen-1-yl)ureido)pyrimidine-2-carboxamide] was tested. Which pIC50 [1] did it give?
Answer: < 8.30

Question: What about the pIC50 (p38 alpha) of the same molecule?
Answer: 8.00 to 9.00

Question: How did the pIC50 [1] turn out when `CN(CCO)CCNC(=O)c1cc(C(C)(C)C)cc(NC(=O)N[C@H]2CC[C@@H](Oc3ccc4nnc(C(C)(C)C)n4c3)c3ccccc32)n1` [Example 208, 4-(tert-butyl)-6-(3-((1S,4R)-4-((3-(tert-butyl)-[1,2,4]triazolo[4,3-a]pyridin-6-yl)oxy)-1,2,3,4-tetrahydronaphthalen-1-yl)ureido)-N-(2-((2-hydroxyethyl)(methyl)-amino)ethyl)picolinamide formate salt] was run?
Answer: < 8.30

Question: What about the pIC50 (p38 alpha) of the same molecule?
Answer: > 9.00

Question: With `CC(C)Cc1nnc2ccc(O[C@@H]3CC[C@H](NC(=O)Nc4cc(C(C)(C)C)nc(C(=O)NCCN(C)C)n4)c4ccccc43)cn12` [Example 91, 4-(tert-butyl)-N-(2-(dimethylamino)ethyl)-6-(3-((1S,4R)-4-((3-isobutyl-[1,2,4]triazolo[4,3-a]pyridin-6-yl)oxy)-1,2,3,4-tetrahydronaphthalen-1-yl)ureido)pyrimidine-2-carboxamide] as the molecule, how does the pIC50 [1] read?
Answer: < 8.30

Question: What about the pIC50 (p38 alpha) of the same molecule?
Answer: 8.00 to 9.00

Question: With `CCC(CC)c1nnc2ccc(O[C@@H]3CC[C@H](NC(=O)Nc4cc(C(C)(C)C)nc(C(=O)NCC(C)(C)N(C)CC)n4)c4ccccc43)cn12` [Example 176, 4-(tert-butyl)-N-(2-(ethyl(methyl)amino)-2-methylpropyl)-6-(3-((1S,4R)-4-((3-(pentan-3-yl)-[1,2,4]triazolo[4,3-a]pyridin-6-yl)oxy)-1,2,3,4-tetrahydronaphthalen-1-yl)ureido)pyrimidine-2-carboxamide] as the molecule, how does the pIC50 [1] read?
Answer: 8.30 to 9.00

Question: And the pIC50 (p38 alpha)?
Answer: > 9.00

Question: What does the source list for `CSc1nc(NC(=O)N[C@H]2CC[C@@H](Oc3ccc4nnc([C@]5(C)CCCN5C)n4c3)c3ccccc32)cc(C(C)(C)C)n1` [Example 49, 1-(6-(tert-Butyl)-2-(methylthio)pyrimidin-4-yl)-3-((1S,4R)-4-((3-((S)-1,2-dimethylpyrrolidin-2-yl)-[1,2,4]triazolo[4,3-a]pyridine-6-yl)oxy)-1,2,3,4-tetrahydronaphthalen-1-yl)urea]?
Answer: pIC50 [1]: < 8.30; pIC50 (p38 alpha): 8.00 to 9.00

Question: With `CC(C)(C)c1cc(NC(=O)N[C@H]2CC[C@@H](Oc3ccc4nnc(C5CCCC5)n4c3)c3ccccc32)nc(C(=O)NCCN2CCOCC2)n1` [Example 75, 4-(tert-butyl)-6-(3-((1S,4R)-4-((3-cyclopentyl-[1,2,4]triazolo[4,3-a]pyridin-6-yl)oxy)-1,2,3,4-tetrahydronaphthalen-1-yl)ureido)-N-(2-morpholinoethyl)-pyrimidine-2-carboxamide] as the molecule, how does the pIC50 [1] read?
Answer: < 8.30

Question: And the pIC50 (p38 alpha)?
Answer: 8.00 to 9.00

Question: How did the pIC50 [1] turn out when `CN1CC(C(=O)NCc2nc(NC(=O)N[C@H]3CC[C@@H](Oc4ccc5nnc(C(C)(C)C)n5c4)c4ccccc43)cc(C(C)(C)C)n2)C1` [Example 126, N-((4-(tert-butyl)-6-(3-((1S,4R)-4-((3-(tert-butyl)-[1,2,4]triazolo[4,3-a]pyridin-6-yl)oxy)-1,2,3,4-tetrahydronaphthalen-1-yl)ureido)pyrimidin-2-yl)methyl)-1-methylazetidine-3-carboxamide] was run?
Answer: < 8.30

Question: And the pIC50 (p38 alpha)?
Answer: > 9.00

Question: With `CN(C)CCNC(=O)c1nc(NC(=O)N[C@H]2CC[C@@H](Oc3ccc4nnc(C5(C)COC5)n4c3)c3ccccc32)cc(C(C)(C)C)n1` [Example 55, 4-(tert-Butyl)-N-(2-(dimethylamino)ethyl)-6-(3-((1S,4R)-4-((3-(3-methyloxetan-3-yl)-[1,2,4]triazolo[4,3-a]pyridin-6-yl)oxy)-1,2,3,4-tetrahydronaphthalen-1-yl)ureido)pyrimidine-2-carboxamide] as the molecule, how does the pIC50 [1] read?
Answer: < 8.30

Question: What about the pIC50 (p38 alpha) of the same molecule?
Answer: 8.00 to 9.00

Question: With `CN1CCN(C(=O)c2nc(NC(=O)N[C@H]3CC[C@@H](Oc4ccc5nnc(C(C)(C)C)n5c4)c4ccccc43)cc(C(C)(C)C)n2)CC1` [Example 128, 1-(6-(tert-butyl)-2-(4-methylpiperazine-1-carbonyl)pyrimidin-4-yl)-3-((1S,4R)-4-((3-(tert-butyl)-[1,2,4]triazolo[4,3-a]pyridin-6-yl)oxy)-1,2,3,4-tetrahydronaphthalen-1-yl)urea] as the molecule, how does the pIC50 [1] read?
Answer: < 8.30

Question: And the pIC50 (p38 alpha)?
Answer: > 9.00

Question: Which results are given for `CC(=O)OCc1nc(NC(=O)N[C@H]2CC[C@@H](Oc3ccc4nnc([C@]5(C)CCCN5C)n4c3)c3ccccc32)cc(C(C)(C)C)n1` [Example 26, (4-(tert-Butyl)-6-(3-((1S,4R)-4-((3-((S)-1,2-dimethylpyrrolidin-2-yl)-[1,2,4]triazolo[4,3-a]pyridin-6-yl)oxy)-1,2,3,4-tetrahydronaphthalen-1-yl)ureido)pyrimidin-2-yl)methyl acetate]?
Answer: pIC50 [1]: 8.30 to 9.00; pIC50 (p38 alpha): 8.00 to 9.00

Question: Which results are given for `CN(C)CCNC(=O)c1cc(NC(=O)N[C@H]2CC[C@@H](Oc3ccc4nnc(C(C)(C)C)n4c3)c3ccccc32)cc(C(C)(C)C)n1` [Example 186, 6-(tert-butyl)-4-(3-((1S,4R)-4-((3-(tert-butyl)-[1,2,4]triazolo[4,3-a]pyridin-6-yl)oxy)-1,2,3,4-tetrahydronaphthalen-1-yl)ureido)-N-(2-(dimethylamino)ethyl)-picolinamide]?
Answer: pIC50 [1]: > 9.00; pIC50 (p38 alpha): > 9.00

Question: With `CN(C)CCNC(=O)c1cc(C(C)(C)C)cc(NC(=O)N[C@H]2CC[C@@H](Oc3ccc4nnc(C(C)(C)C)n4c3)c3ccccc32)n1` [Example 58, 4-(tert-Butyl)-6-(3-((1S,4R)-4-((3-(tert-butyl)-[1,2,4]triazolo[4,3-a]pyridin-6-yl)oxy)-1,2,3,4-tetrahydronaphthalen-1-yl)ureido)-N-(2-(dimethylamino)ethyl)picolinamide] as the molecule, how does the pIC50 [1] read?
Answer: 8.30 to 9.00

Question: What about the pIC50 (p38 alpha) of the same molecule?
Answer: > 9.00

Question: How did the pIC50 [1] turn out when `CN1CCC[C@@]1(C)c1nnc2ccc(O[C@@H]3CC[C@H](NC(=O)Nc4cc(CO)nc(C(C)(C)C)c4)c4ccccc43)cn12` [Example 51, 1-(2-(tert-Butyl)-6-(hydroxymethyl)pyridin-4-yl)-3-((1S,4R)-4-((3-((S)-1,2-dimethylpyrrolidin-2-yl)-[1,2,4]triazolo[4,3-a]pyridin-6-yl)oxy)-1,2,3,4-tetrahydronaphthalen-1-yl)urea] was run?
Answer: > 9.00

Question: And the pIC50 (p38 alpha)?
Answer: > 9.00

Question: With `COc1ncc(C(C)(C)C)cc1NC(=O)N[C@H]1CC[C@@H](Oc2ccc3nnc([C@@H]4CCCN4C)n3c2)c2ccccc21` [Example 35, 1-(5-(tert-Butyl)-2-methoxypyridin-3-yl)-3-((1S,4R)-4-((3-((S)-1-methylpyrrolidin-2-yl)-[1,2,4]triazolo[4,3-a]pyridin-6-yl)oxy)-1,2,3,4-tetrahydronaphthalen-1-yl)urea hydrochloride Salt] as the molecule, how does the pIC50 [1] read?
Answer: > 9.00

Question: And the pIC50 (p38 alpha)?
Answer: > 9.00

Question: Which results are given for `CN1CCN(C(C)(C)c2nnc3ccc(O[C@@H]4CC[C@H](NC(=O)Nc5cc(C(=O)NCCO)nc(C(C)(C)C)c5)c5ccccc54)cn23)CC1` [Example 200, 6-(tert-Butyl)-N-(2-hydroxyethyl)-4-(3-((1S,4R)-4-((3-(2-(4-methylpiperazin-1-yl)propan-2-yl)-[1,2,4]triazolo[4,3-a]pyridin-6-yl)oxy)-1,2,3,4-tetrahydronaphthalen-1-yl)ureido)picolinamide formate salt]?
Answer: pIC50 [1]: < 8.30; pIC50 (p38 alpha): > 9.00

Question: `COC(C)(C)c1nnc2ccc(O[C@@H]3CC[C@H](NC(=O)Nc4cc(C(C)(C)C)nc(CO)n4)c4ccccc43)cn12` [Example 13, 1-(6-(tert-Butyl)-2-(hydroxymethyl)pyrimidin-4-yl)-3-((1S,4R)-4-((3-(2-methoxypropan-2-yl)-[1,2,4]triazolo[4,3-a]pyridine-6-yl)oxy)-1,2,3,4-tetrahydronaphthalene-1-yl)urea] was tested. Which pIC50 [1] did it give?
Answer: 8.30 to 9.00

Question: What about the pIC50 (p38 alpha) of the same molecule?
Answer: > 9.00

Question: `C[C@@H]1CCC[C@H](C)N1c1nnc2ccc(O[C@@H]3CC[C@H](NC(=O)Nc4cc(C(C)(C)C)nc(C(=O)NCCN(C)C)n4)c4ccccc43)cn12` [Example 20, 4-(tert-Butyl)-N-(2-(dimethylamino)ethyl)-6-(3-((1S,4R)-4-((3-((2R,6S)-2,6-dimethylpiperidin-1-yl)-[1,2,4]triazolo[4,3-a]pyridin-6-yl)oxy)-1,2,3,4-tetrahydronaphthalen-1-yl)ureido)pyrimidine-2-carboxamide] was tested. Which pIC50 [1] did it give?
Answer: 8.30 to 9.00

Question: What about the pIC50 (p38 alpha) of the same molecule?
Answer: > 9.00
